We go through 44 compounds from US9102623B2, “Pyridinecarboxamides, useful-plant-protecting composition comprising them and processes for their preparation and their use” (Bayer Cropscience AG, priority 2007, dated 2015).

This experiment concerns barley. As to the kind of experiment: Post-emergence safener action in barley with the herbicide mesosulfuron-methyl. To be noted: greenhouse, visual scoring of damage. Type of experiment: in vivo. The source says:
The damage to the plants is scored visually using a scale of 0-100%, in comparison to control plants:
0%=no noticeable effect compared to the untreated plant
100%=the treated plants dies.
Seeds or rhizome pieces of monocotyledonous and dicotyledonous harmful plants and crop plants are placed in sandy loam soil in plastic pots, covered with soil and cultivated in the greenhouse under good growth conditions. Alternatively, harmful plants encountered in paddy rice cultivation are cultivated in pots in which the surface of the soil is covered by up to 2 cm of water. Three weeks after sowing, the test plants are treated at the three-leaf stage. The herbicide/safener active compound combinations according to the invention, formulated as emulsion concentrates, and in parallel tests the individual active compounds formulated in a corresponding manner, are sprayed at various dosages at a water application rate of […] (converted) onto the green parts of the plants, and, after the test plants were left to stand in the greenhouse for about 2 to 3 weeks under optimum growth conditions, the effect of the preparations is scored visually in comparison to untreated controls. In the case of rice or harmful plants encountered in the cultivation of rice, the active compounds are also added directly to the irrigation water (application analogously to the so-called granule application) or sprayed onto the plants and into the irrigation water. […]

For the compound `CNC(=O)c1ccc(C(F)(F)F)[nH]c1=O` [Compound 1], the “safener action for the herbicide mesosulfuron-methyl” value (“safener action” for short) is given as “good safener action”. Regarding `CCCNC(=O)c1ccc(C(F)(F)F)[nH]c1=O` [Compound 3], the “safener action” value is listed as “good safener action”.

Regarding `O=C(NC1CC1)c1ccc(C(F)(F)F)[nH]c1=O` [Compound 5], the “safener action” value was “good safener action”.

Turning to `O=C(NC1CCC1)c1ccc(C(F)(F)F)[nH]c1=O` [Compound 7, N-Cyclobutyl-2-oxo-6-(trifluoromethyl)-1,2-dihydropyridine-3-carboxamide], the “safener action” value is “good safener action”.

As for `CC(C)N(C)C(=O)c1ccc(C(F)(F)F)[nH]c1=O` [Compound 13], the “safener action” value is listed as “good safener action”.

For the compound `O=C(NCC1CC1)c1ccc(C(F)(F)F)[nH]c1=O` [Compound 22], the “safener action” value is recorded as “good safener action”.

For the compound `O=C(NCC(F)(F)C(F)(F)F)c1ccc(C(F)(F)F)[nH]c1=O` [Compound 25], the “safener action” value is “good safener action”. In the case of `O=C(NCC(F)(F)F)c1ccc(C(F)(F)F)[nH]c1=O` [Compound 26], the “safener action” value is “good safener action”. Consider `CC(C)CNC(=O)c1ccc(C(F)(F)F)[nH]c1=O` [Compound 30], for which the “safener action” value is reported as “good safener action”. The entry for `C#CCN(C)C(=O)c1ccc(C(F)(F)F)[nH]c1=O` [Compound 40] is “good safener action”; for `COCCNC(=O)c1ccc(C(F)(F)F)[nH]c1=O` [Compound 57] it is “good safener action”. The entry for `CNC(=O)c1ccc(C(F)(F)Cl)[nH]c1=O` [Compound 115] is “good safener action”; for `CCNC(=O)c1ccc(C(F)(F)Cl)[nH]c1=O` [Compound 116] it is “good safener action”. Turning to `CCCNC(=O)c1ccc(C(F)(F)Cl)[nH]c1=O` [Compound 117], the “safener action” value was “good safener action”. In the case of `O=C(NC1CC1)c1ccc(C(F)(F)Cl)[nH]c1=O` [Compound 119], the “safener action” value is listed as “good safener action”. Under `CN(C)C(=O)c1ccc(C(F)(F)Cl)[nH]c1=O` [Compound 123] stands “good safener action”; under `CCN(C)C(=O)c1ccc(C(F)(F)Cl)[nH]c1=O` [Compound 124], “good safener action”; under `CCN(CC)C(=O)c1ccc(C(F)(F)Cl)[nH]c1=O` [Compound 128], “good safener action”.

In the case of `CCN(C(=O)c1ccc(C(F)(F)Cl)[nH]c1=O)C(C)C` [Compound 130], the “safener action” value is “good safener action”. Under `CCCCCNC(=O)c1ccc(C(F)(F)Cl)[nH]c1=O` [Compound 134] stands “good safener action”; under `O=C(NCC1CC1)c1ccc(C(F)(F)Cl)[nH]c1=O` [Compound 136], “good safener action”; under `CC(C)(C)CNC(=O)c1ccc(C(F)(F)Cl)[nH]c1=O` [Compound 138], “good safener action”. For `C#CCN(C)C(=O)c1ccc(C(F)(F)Cl)[nH]c1=O` [Compound 154], the “safener action” value is listed as “good safener action”. Consider `CCCC(C)NC(=O)c1ccc(C(F)(F)Cl)[nH]c1=O` (centres unmarked) [Compound 157], for which the “safener action” value is given as “good safener action”. On to `CC(C)C(C)NC(=O)c1ccc(C(F)(F)Cl)[nH]c1=O` (centres unmarked) [Compound 163], for which the “safener action” value is listed as “good safener action”.

On to `CCC(CC)NC(=O)c1ccc(C(F)(F)Cl)[nH]c1=O` [Compound 165], for which the “safener action” value is listed as “good safener action”. Under `COC(CNC(=O)c1ccc(C(F)(F)Cl)[nH]c1=O)OC` [Compound 168] stands “good safener action”; under `COCCNC(=O)c1ccc(C(F)(F)Cl)[nH]c1=O` [Compound 171, 6-[Chloro(difluoro)methyl]-N-(2-methoxyethyl)-2-oxo-1,2-dihydropyridine-3-carboxamide], “good safener action”. The entry for `CNC(=O)c1ccc(C(F)(F)C(F)(F)F)[nH]c1=O` [Compound 342] is “good safener action”; for `CCCNC(=O)c1ccc(C(F)(F)C(F)(F)F)[nH]c1=O` [Compound 344] it is “good safener action”.

As for `O=C(NC1CC1)c1ccc(C(F)(F)C(F)(F)F)[nH]c1=O` [Compound 346], the “safener action” value is recorded as “good safener action”. Under `CCC(C)NC(=O)c1ccc(C(F)(F)C(F)(F)F)[nH]c1=O` (centres unmarked) [Compound 382, N-(1-Methylpropyl)-2-oxo-6-(pentafluoroethyl)-1,2-dihydropyridine-3-carboxamide] stands “good safener action”; under `CCCC(C)NC(=O)c1ccc(C(F)(F)C(F)(F)F)[nH]c1=O` (centres unmarked) [Compound 384], “good safener action”; under `COCCNC(=O)c1ccc(C(F)(F)C(F)(F)F)[nH]c1=O` [Compound 398], “good safener action”. The entry for `COCC(C)NC(=O)c1ccc(C(F)(F)C(F)(F)F)[nH]c1=O` (centres unmarked) [Compound 405] is “good safener action”. The entry for `COCCCNC(=O)c1ccc(C(F)(F)C(F)(F)F)[nH]c1=O` [Compound 407] is “good safener action”; for `NC(=O)c1cc(Cl)c(C(F)(F)F)[nH]c1=O` [Compound 455, 5-Chloro-2-oxo-6-(trifluoromethyl)-1,2-dihydropyridine-3-carboxamide] it is “good safener action”. As to `CCNC(=O)c1cc(Cl)c(C(F)(F)Cl)[nH]c1=O` [Compound 571], the “safener action” value is “good safener action”. In the case of `CNC(=O)c1cc(Br)c(C(F)(F)F)[nH]c1=O` [Compound 910], the “safener action” value is “good safener action”.

As to `CCC(C)NC(=O)c1cc(Br)c(C(F)(F)F)[nH]c1=O` (centres unmarked) [Compound 950], the “safener action” value is given as “good safener action”.

In the case of `NC(=O)c1cc(Br)c(C(F)(F)Cl)[nH]c1=O` [Compound 1023], the “safener action” value is “good safener action”. Under `CCCCNC(=O)c1cc(Br)c(C(F)(F)Cl)[nH]c1=O` [Compound 1029] stands “good safener action”; under `O=C(NC1CCC1)c1cc(Br)c(C(F)(F)Cl)[nH]c1=O` [Compound 1030], “good safener action”. `COCC(C)NC(=O)c1cc(Br)c(C(F)F)[nH]c1=O` (centres unmarked) [Compound 1201, 5-Bromo-6-(difluoromethyl)-N-(2-methoxy-1-methylethyl)-2-oxo-1,2-dihydropyridine-3-carboxamide]: the “safener action” value is on record as “good safener action”.
